Measured values from patent US12054746B2, “Method for inducing differentiation of pluripotent stem cells into intestinal epithelial cells” (PUBLIC UNIVERSITY CORPORATION NAGOYA CITY UNIVERSITY, priority 2018, dated 2024).
Like-named read-outs stand apart in the source and are kept apart here.

Assays:
in vitro [1] = settings: human
Procedure: (§1) Human iPS cells (FF-1) were treated with a serum-free medium containing 100 ng/mL activin A for 24 hours to initiate differentiation. […] Thereafter, the cells were cultured in Advanced DMEM/F-12 containing 2% FBS, 1% GlutaMax, 100 units/mL penicillin G, 100 μg/mL streptomycin sulfate, and 250 ng/mL FGF2 for 96 hours to differentiate into small intestine stem cells. The small intestine stem cell-like cells after the treatment with activin A and FGF2 were detached with Aecutase and seeded on GFR Matrigel which was diluted 30-fold with human iPS medium in advance. After seeding, the cells were cultured for 19 to 23 days in Advanced DMEM/F-12 containing 2% FBS, 0.1 mM NEAA, 2 mM L-Glu, 100 units/mL penicillin G, 100 μg/mL streptomycin sulfate, 2% B27 supplement, 1% N2 supplement, 1% HepExtend supplement, 20 ng/mL EGF, and 30 μM Forskolin. From 12 to 16 days before the end of differentiation, differentiation into small intestinal epithelial cells was induced was by adding PD98059 to 20 μM, 5-aza-2′-deoxycytidine (5-aza-2′-dC) to 5 μM, and A-83-01 to 0.5 μM.
(§2) HESS (pH 6.5) was added to a chamber on the apical side of human iPS cell-derived small intestinal epithelial cells and Caco-2 cells seeded on Cell culture insert, HBSS (pH 7.4) was added to a chamber on the basal side, and pre-incubated at 37° C. for 60 minutes. […] A sample was collected from the receiver chamber every 15 minutes. The unchanged substance was measured using UPLC-MS/MS. Fa·Fg in humans was referred from, previous reports (References 1 to 6 below). • Reference 1: Takenaka T, Harada N, Kuze J, Chiba M, Iwao T, Matsunaga T. Human small intestinal epithelial cells differentiated from adult intestinal stem cells as a novel system for predicting oral drug absorption in humans. Drug Metab Dispos. […] Expert Opin Drug Metab Toxicol.

in vitro [2] = settings: human, Caco-2
Procedure: as §2

[3] = cited from earlier work
human iPS cells = experiment: Marker gene expression (real-time RT-PCR) after induction of differentiation of human iPS cells into intestinal epithelial cells; assay type: cell-based
Procedure: Induction of differentiation of human iPS cells into intestinal epithelial cells was started in a state where undifferentiated colonies of the human iPS cells accounted for about 70% of the culture dish. […] was induced to differentiate into endoderm by culturing for two days in Roswell Park Memorial Institute (RPMI)+Glutamax medium containing 0.5% FBS, 100 ng/mL activin A, 100 units/mL penicillin G, and 100 μg/mL streptomycin and then culturing for one day in RPMI+Glutamax medium, containing 2% FBS, 100 ng/mL activin A, 100 units/ml penicillin G, and 100 μg/mL streptomycin. Then, the cells were cultured in DMEM/F12 containing 2% FBS, 1% Glutamax, and 250 ng/mL FGF2 for 4 days to induce differentiation into intestinal stem cells. After this treatment, Y-27632 (Rho-binding kinase inhibitor) was added so that the concentration was 10 μmol/L, and the cells treated at 37° C. for 60 minutes in a CO2 incubator under the condition of 5% CO2/95% air were treated with actase for detaching. The detached cells were seeded on a 24-well cell culture plate coated with Matrigel which was diluted 30-fold with a human iPS cell culture medium and from which growth factors was removed. […]

[4] = system: intestinal epithelial cell-like cells derived from human iPS cells; experiment: Drug metabolism experiment (CYP3A4 and UGT activity) in intestinal epithelial cell-like cells derived from human iPS cells; assay type: cell-based; settings: experiment 4, FF-1, Forskolin instead of 8-Br-cAMP from day 12 (FIG. 10)
Procedure: In experiment 3, the FF-1 strain was cultured for 5 days (day 0 to 5) to induce differentiation into endoderm, 4 days (day 5 to 9) to induce differentiation into intestinal stem cells, and 18 days (day 10 to 28) to induce differentiation into intestinal epithelial cells. In experiment 4, the FF-1 strain was cultured for 7 days (day 0 to 7) to induce differentiation into endoderm, 4 days (day 7 to day 11) to induce differentiation into intestinal stem cells, and 18 days (day 12 to day 30) to induce differentiation into intestinal epithelial cells. […]
After completing the differentiation induction, the differentiated cells were cultured at 37° C. in a culture medium (DMEM/F12 containing 1% Glutamax, 1% NEAA, 1% N2 supplement, 100 units/mL penicillin G, 100 μg/mL streptomycin, and 20 ng/mL EGF) containing 5 μmol/L midazolam and 10 μmol/L 7-hydroxycoumarin, and the culture medium was sampled after 24 hours (experiments 3 and 4) or 2 hours (experiment 5). The metabolic activity was calculated from the amount of 1-hydroxymidazolam or 7-hydroxycoumarin glucuronide in the culture medium, which was measured using a liquid chromatography-mass spectrometer (LC-MS/MS). After completing the metabolic experiment, protein quantification was performed, and the metabolic activity was corrected with the amount of protein.

[5] = system: human iPS cell-derived small intestinal epithelial cells; experiment: in vitro
Procedure: as §1, §2

Caco-2 cells = experiment: in vitro
Procedure: as §2

[6] = in humans, from References 1 to 6

Compound `CCCC(=O)Nc1ccc(OCC(O)CNC(C)C)c(C(C)=O)c1` (stereo not shown) [Acebutolol, acebutolol] has a Papp A→B at 60 min (in vitro [1]) of 2.3 ×10⁻⁶ cm/s and a Papp A→B at 60 min (in vitro [2]) of 0.35 ×10⁻⁶ cm/s.

`Cc1cc(=O)n(-c2ccccc2)n1C` [Antipvrine, antipyrine] showed a Papp A→B at 60 min (in vitro [1]) of 55.6 ×10⁻⁶ cm/s.

Work on `Cn1c(=O)c2c(ncn2C)n(C)c1=O` [Caffeine, caffeine] yielded a Papp A→B at 60 min (in vitro [1]) of 52.4 ×10⁻⁶ cm/s.

In the case of `CCOC(=O)[C@H](CCc1ccccc1)N[C@@H](C)C(=O)N1CCC[C@H]1C(=O)O` [Enalapril, enalapril], the Papp A→B at 60 min (in vitro [1]) is given as 1.93 ×10⁻⁶ cm/s, the Papp A→B at 60 min (in vitro [2]) is given as 0.19 ×10⁻⁶ cm/s and the Fa · Fg/100 [3, 6] is given as 0.6.

In the case of `CC[C@H]1OC(=O)[C@H](C)[C@@H](O[C@H]2C[C@@](C)(OC)[C@@H](O)[C@H](C)O2)[C@H](C)[C@@H](O[C@@H]2O[C@H](C)C[C@H](N(C)C)[C@H]2O)[C@](C)(O)C[C@@H](C)C(=O)[C@H](C)[C@@H](O)[C@]1(C)O` [Erythromycin, erythromycin], the Papp A→B at 60 min (in vitro [1]) is reported as 1.24 ×10⁻⁶ cm/s and the Papp A→B at 60 min (in vitro [2]) is reported as 0.45 ×10⁻⁶ cm/s.

For `C=C[C@@]1(C)CC(=O)[C@]2(O)[C@@]3(C)[C@@H](O)CCC(C)(C)[C@@H]3[C@H](O)[C@H](OC(C)=O)[C@@]2(C)O1` [Forskolin], the “effect on the expressions of CYP3A4 and ABCB1/MDR1” value (human iPS cells; experiment 1, Windy, compared with 8-Br-cAMP) was “drastically exceeded that of 8-Br-cAMP”, the “expression level of CYP3A4 and SGLT1” value (human iPS cells; experiment 2, Windy, Forskolin alone day 8 to 26, vs 8-Br-cAMP and IBMX in combination (FIG. 5)) was “significantly increased” and the CYP3A4 activity [4] was “further significant increase”.

In the case of `NS(=O)(=O)c1cc2c(cc1Cl)NCNS2(=O)=O` [Hydrochlorothiazide, hydrochlorothiazide], the Papp A→B at 60 min (in vitro [1]) is given as 4.4 ×10⁻⁶ cm/s, the Papp A→B at 60 min (in vitro [2]) is given as 2.44 ×10⁻⁶ cm/s and the Fa · Fg/100 [3, 6] is given as 0.67.

For `CN(C)C(=N)N=C(N)N` [Metformin, metformin], the Papp A→B at 60 min (in vitro [1]) is listed as 2.43 ×10⁻⁶ cm/s, the Papp A→B at 60 min (in vitro [2]) is listed as 0.52 ×10⁻⁶ cm/s and the Fa · Fg/100 [3, 6] is listed as 0.71.

In the case of `Cc1ncc2n1-c1ccc(Cl)cc1C(c1ccccc1F)=NC2` [Midazolam, midazolam], the Papp A→B (in vitro [1]) is given as 48.3 ×10⁻⁶ cm/s, the Papp A→B (in vitro [2]) is given as 38.7 ×10⁻⁶ cm/s and the Fa · Fg/100 [3, 6] is given as 0.369.

For `NC(=O)c1ncn([C@@H]2O[C@H](CO)[C@@H](O)[C@H]2O)n1` [Ribavirin, ribavirin], the Papp A→B at 60 min (in vitro [1]) is listed as 3.3 ×10⁻⁶ cm/s, the Papp A→B at 60 min (in vitro [2]) is listed as 0.32 ×10⁻⁶ cm/s and the Fa · Fg/100 [3, 6] is listed as 0.85.

`CCN1CCCC1CNC(=O)c1cc(S(N)(=O)=O)ccc1OC` (stereo not shown) [Sulpiride, sulpiride] showed a Papp A→B at 60 min (in vitro [1]) of 1.45 ×10⁻⁶ cm/s.

For `C=CC[C@@H]1/C=C(\C)C[C@H](C)C[C@H](OC)[C@H]2O[C@@](O)(C(=O)C(=O)N3CCCC[C@H]3C(=O)O[C@H](/C(C)=C/[C@@H]3CC[C@@H](O)[C@H](OC)C3)[C@H](C)[C@@H](O)CC1=O)[C@H](C)C[C@@H]2OC` [Tacrolimus, tacrolimus], the Papp A→B at 60 min (in vitro [1]) is listed as 14.3 ×10⁻⁶ cm/s, the Papp A→B at 60 min (in vitro [2]) is listed as 12.3 ×10⁻⁶ cm/s and the Fa · Fg/100 [3, 6] is listed as 0.136.

In the case of lucifer yellow, the Papp A→B [5] is given as 0.3 ×10⁻⁶ cm/s, the Papp A→B (Caco-2 cells) is given as 0.06 ×10⁻⁶ cm/s and the Fa · Fg/100 ([3]; in vivo) is given as 0.
